Data from US5206239A, “Pyrroloazepine derivatives” (Suntory Limited, priority 1990, dated 1993).
Read-outs that look alike come from different tables or passages of the source.

Columns and labels:
α1 = experiment: Anti-α1 action: inhibition of norepinephrine-induced tonic contraction of isolated guinea pig thoracic aorta; parameters: species or system guinea pig (Hartley, male); conditions: tonic contraction induced by 10^-5 M norepinephrine = 100%
Protocol: (§1) With respect to the compounds of the present invention, their anti-α1 action and anti-serotonin action were investigated by the testing methods which will be described below.
The thoracic aorta of each Hartley male guinea pig (body weight: 300-500 g) was excised. […] Taking the tonic contraction induced by 10^-5 M norepinephrine (NE) as 100%, the percent contractions upon addition of each test drug at 10^-8 and 10^-7 M were determined as anti-α1 action.

[1] = Anti-serotonin action (anti-5-HT action): inhibition of serotonin-induced phasic contraction of isolated guinea pig superior mesenteric artery; parameters: species or system guinea pig (Hartley, male); conditions: phasic contraction induced by 10^-5 M serotonin = 100%, read-out: Anti 5-HT action (percent contraction, % of Control); for remaining activity at 1 µM: 10^-6 M test drug; for remaining activity at 0.1 µM: 10^-7 M test drug
Protocol: as §1
Taking the phasic contraction induced by 10^-5 M serotonin as 100%, the percent contractions in the presence of each test drug at 10^-7 and 10^-6 M were determined as anti-5-HT action.

Row | SMILES | Anti α1 action (percent contraction, % of Control) (α1; 10^-7 M test drug, 0.1 µM) | Anti α1 action (percent contraction, % of Control) (α1; 10^-8 M test drug, 0.01 µM) | remaining activity at 1 µM [1] [%] | remaining activity at 0.1 µM [1] [%] | remaining activity at 1 µM ([1]; guinea pig) [%] | remaining activity at 0.1 µM ([1]; guinea pig) [%]
1 | O=C1CCN(Cc2ccccc2)C(=O)c2c1ccn2CCCCN1CCC(c2ccccc2)CC1 [Compound No. 48, 7-Benzyl-1-[4-(4-phenylpiperidin-1-yl)butyl]-6,7-dihydropyrrolo[2,3-c]azepine-4,8(1H,5H)-dione] | 37.7 % of Control | 77.4 % of Control | 49 | 88 | – | –
2 | CN1CCC(=NO)c2ccn(CCCCN3CCC(c4ccccc4)CC3)c2C1=O [Compound No. 51, 4-hydroxyimino-7-methyl-1-[4-(4-phenylpiperidin-1-yl)butyl]-6,7-dihydropyrrolo-[2,3-c]azepin-8(1H,5H)-one] | 30.8 % of Control | 74.9 % of Control | 54.4 | 84.4 | – | –
3 | CN1CCC(=O)c2ccn(CCCCN3CCC(C(O)(c4ccc(F)cc4)c4ccc(F)cc4)CC3)c2C1=O [Compound No. 54, 1-[4-[4-[Bis(4-fluorophenyl)hydroxymethyl]-piperidin-1-yl]butyl]-7-methyl-6,7-dihydropyrrolo[2,3-c]azepine-4,8(1H,5H)-dione] | 26.0 % of Control | 90.4 % of Control | 14.7 | 62.9 | – | –
4 | CN1CCC(=O)c2ccn(CCCCN3CCC(C(=O)c4ccc(F)cc4)CC3)c2C1=O [Compound No. 60, 1-[4-[4-(4-fluorobenzoyl)piperidin-1-yl]butyl]-7-methyl-6,7-dihydropyrrolo[2,3-c]azepine-4,8(1H,5H)-dione] | 20.5 % of Control | 43.9 % of Control | – | – | 11.8 | 62.9
5 | CN1CCC(=NO)c2ccn(CCCCN3CCC(C(=O)c4ccc(F)cc4)CC3)c2C1=O [Compound No. 61, 1-[4-[4-(4-fluorobenzoyl)piperidin-1-yl]butyl]-4-hydroxyimino-7-methyl-6,7-dihydropyrrolo[2,3-c]azepin-8-(1H,5H)-one] | 21.4 % of Control | 44.7 % of Control | 4.1 | 12.1 | – | –
6 | CN1CCC(=NO)c2ccn(CCCCN3CCC(C(=O)c4ccc(F)cc4)CC3)c2C1=O.Cc1ccc(S(=O)(=O)O)cc1 [Compound No. 62, 1-[4-[4-(4-fluorobenzoyl)piperidin-1-yl]butyl]-4-hydroxyimino-7-methyl-6,7-dihydropyrrolo[2,3-c]azepin-8(1H,5H)-one p-toluenesulfonate] | 17.1 % of Control | 26.8 % of Control | – | – | 8.2 | 47.4
7 | CCN1CCC(=NO)c2ccn(CCCCN3CCC(C(=O)c4ccc(F)cc4)CC3)c2C1=O [Compound No. 65, 7-ethyl-1-[4-[4-(4-fluorobenzoyl)-piperidin-1-yl]butyl]-4-hydroxyimino-6,7-dihydro-pyrrolo[2,3-c]azepin-8-(1H,5H)-one] | 9.9 % of Control | 19.5 % of Control | 3.6 | 19.9 | – | –
8 | O=C(c1ccc(F)cc1)C1CCN(CCCCn2ccc3c2C(=O)N(Cc2ccccc2)CCC3=NO)CC1 [Compound No. 66] | 10.4 % of Control | 19.3 % of Control | 6.9 | 77.6 | – | –
9 | CCCN1CCC(=NO)c2ccn(CCCCN3CCC(C(=O)c4ccc(F)cc4)CC3)c2C1=O [Compound No. 75, 1-[4-[4-(4-Fluorobenzoyl)piperidin-1-yl]butyl]-4-hydroxyimino-7-propyl-6,7-dihydropyrrolo[2,3-c]-azepin-8(1H,5H)-one] | 17.9 % of Control | 37.0 % of Control | 8.2 | 12.9 | – | –
10 | O=C1CCNC(=O)c2c1ccn2CCCCN1CCC(C(=O)c2ccc(F)cc2)CC1 [Compound No. 81, 1-[4-[4-(4-Fluorobenzoyl)piperidin-1-yl]butyl]-6,7-dihydropyrrolo[2,3-c]azepine-4,8(1H,5H)-dione] | 28.9 % of Control | 57.5 % of Control | 14.3 | 57.1 | – | –
11 | CN1CCC(=NO)c2ccn(CCCCN3CCC(Oc4ccc(F)cc4)CC3)c2C1=O [Compound No. 84, 1-[4-[4-(4-Fluorophenoxy)piperidin-1-yl]butyl]-4-hydroxyimino-7-methyl-6,7-dihydropyrrolo[2,3-c]-azepin-8(1H,5H)-one] | 67.0 % of Control | 86.5 % of Control | 3.8 | 60 | – | –
12 | CC(=O)ON=C1CCN(C)C(=O)c2c1ccn2CCCCN1CCC(C(=O)c2ccc(F)cc2)CC1 [Compound No. 91, 4-acetoxyimino-1-[4-[4-(4-fluorobenzoyl)piperidin-1-yl)butyl]-7-methyl-6,7-dihydropyrrolo[2,3-c]azepin-8(1H,5H)-one] | 35.5 % of Control | 58.2 % of Control | 10.3 | 16.1 | – | –
13 | CN1CCC(=NOC(=O)c2ccccc2)c2ccn(CCCCN3CCC(C(=O)c4ccc(F)cc4)CC3)c2C1=O [Compound No. 92, 4-benzoyloxyimino-1-[4-[4-(4-fluorobenzoylpiperidin)-1-yl]butyl]-7-methyl-6,7-dihydropyrrolo[2,3-c]azepin-8(1H,5H)-one] | 21.5 % of Control | 49.3 % of Control | 12.5 | 48.5 | – | –
